Data: patent US20150284375A1 (AJINOMOTO CO., INC., priority 2012, published 2015)
Read-outs that look alike come from different tables or passages of the source.

Biological target: T1, human TRPA1 (Homo sapiens, UniProt O75762)
T1 construct: expressed in transfected cells; host or cells: Human embryonic kidney-derived 293T cells, transiently transfected with the pcDNA3.1/zeo(+) human TRPA1 plasmid
Assay: Measurement of TRPA1 antagonist activity (intracellular calcium increase, FLIPR, allylisothiocyanate stimulation)
Type: cell-based
Conditions: read-out: antagonism hTRPA1
Procedure, shortened: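 IC50 derives from a sigmoid fit of inhibition of the 5-min FLIPR fluorescence change evoked by 20 μM allylisothiocyanate, normalized between agonist and buffer responses. Test substance, diluted in HBSS/20 mM HEPES pH 7.2 plus 0.1% BSA, was applied 10 min beforehand at room temperature to Calcium4-loaded 293T cells transiently expressing human TRPA1.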

[1] = 293T cells transfected with human TRPA1, allylisothiocyanate 20 μM, concentration for 50% inhibitory rate
[2] = allylisothiocyanate 20 μM stimulation, FLIPR calcium assay

T1 sequence (O75762 whole entry): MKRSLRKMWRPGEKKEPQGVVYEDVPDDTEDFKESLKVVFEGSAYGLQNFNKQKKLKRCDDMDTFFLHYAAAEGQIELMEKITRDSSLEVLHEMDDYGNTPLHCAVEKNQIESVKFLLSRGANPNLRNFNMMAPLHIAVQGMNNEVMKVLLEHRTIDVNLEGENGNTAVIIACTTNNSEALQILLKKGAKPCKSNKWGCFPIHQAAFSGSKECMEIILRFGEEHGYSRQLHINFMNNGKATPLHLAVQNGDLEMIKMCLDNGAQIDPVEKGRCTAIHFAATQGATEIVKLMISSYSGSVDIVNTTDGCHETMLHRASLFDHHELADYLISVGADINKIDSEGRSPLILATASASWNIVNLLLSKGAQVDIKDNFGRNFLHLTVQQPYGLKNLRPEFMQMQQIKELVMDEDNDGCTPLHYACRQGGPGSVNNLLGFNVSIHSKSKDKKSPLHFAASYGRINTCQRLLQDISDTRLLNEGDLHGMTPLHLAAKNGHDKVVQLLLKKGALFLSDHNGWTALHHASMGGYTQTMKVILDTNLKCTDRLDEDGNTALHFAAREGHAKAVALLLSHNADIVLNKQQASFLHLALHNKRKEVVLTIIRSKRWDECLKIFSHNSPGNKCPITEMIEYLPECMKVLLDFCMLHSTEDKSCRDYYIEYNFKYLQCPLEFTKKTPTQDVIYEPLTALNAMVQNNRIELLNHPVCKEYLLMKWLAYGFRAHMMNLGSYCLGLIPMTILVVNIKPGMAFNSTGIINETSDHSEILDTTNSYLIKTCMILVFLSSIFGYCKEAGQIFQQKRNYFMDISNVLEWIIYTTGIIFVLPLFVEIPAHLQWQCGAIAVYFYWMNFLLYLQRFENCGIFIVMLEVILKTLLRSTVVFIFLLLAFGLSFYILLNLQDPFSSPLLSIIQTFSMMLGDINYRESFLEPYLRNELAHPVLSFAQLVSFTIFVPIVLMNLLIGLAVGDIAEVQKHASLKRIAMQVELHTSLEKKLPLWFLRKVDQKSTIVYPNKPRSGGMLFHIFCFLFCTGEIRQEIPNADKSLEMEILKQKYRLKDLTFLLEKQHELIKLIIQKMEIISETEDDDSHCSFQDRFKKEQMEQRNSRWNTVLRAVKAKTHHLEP

| IC50 [1] [nM] | IC50 [2] [nM] | SMILES |
| --- | --- | --- |
|  | 2900 | O=C(NCc1cccc(OCc2ccc(C(F)(F)F)cc2)c1)[C@@H]1CCCN1S(=O)(=O)c1ccc2ncsc2c1 [Example 209, (2S)-1-(1,3-benzothiazol-6-ylsulfonyl)-N-[[3-[[4-(trifluoromethyl)phenyl]methoxy]phenyl]methyl]pyrrolidine-2-carboxamide] |
|  | 780 | O=C(NCc1cccc(OCc2ccc(C(F)(F)F)cc2)c1)[C@@H]1CCCCN1S(=O)(=O)c1ccc(F)cc1 [Example 175, (2S)-1-(4-fluorophenyl)sulfonyl-N-[[3-[[4-(trifluoromethyl)phenyl]methoxy]phenyl]methyl]piperidine-2-carboxamide] |
|  | 3300 | O=C(NCc1cccc(Oc2ccc(C(F)(F)F)cc2)c1)[C@@H]1CCCN1S(=O)(=O)c1nccs1 [Example 183, (2S)-1-thiazol-2-ylsulfonyl-N-[[3-[4-(trifluoromethyl)phenoxy]phenyl]methyl]pyrrolidine-2-carboxamide] |

The next lines start with the compound.

| SMILES | IC50 [1] [nM] | IC50 [2] [nM] |
| --- | --- | --- |
| O=C(NCc1cccc(OCc2cccc(Cl)c2)c1)[C@@H]1CCCN1S(=O)(=O)c1ccc(Cl)s1 [Example 102] | 15 |  |
| COc1cccc(COc2cccc(CNC(=O)[C@@H]3CCCN3S(=O)(=O)c3ccc(F)cc3)c2)c1 [Example 124, (2S)-1-(4-fluorophenyl)sulfonyl-N-[[3-[(3-methoxyphenyl)methoxy]phenyl]methyl]pyrrolidine-2-carboxamide] |  | 130 |
| O=C(NCc1cccc(OCc2ccncc2)c1)[C@@H]1CCCN1S(=O)(=O)c1ccc(F)cc1 [Example 133, (2S)-1-(4-fluorophenyl)sulfonyl-N-[[3-(4-pyridylmethoxy)phenyl]methyl]pyrrolidine-2-carboxamide] |  | 4400 |
| O=C(NCc1cccc(OCc2ccc(C(F)(F)F)nc2)c1)[C@@H]1CCCN1S(=O)(=O)c1ccco1 [Example 149, (2S)-1-(2-furylsulfonyl)-N-[[3-[[6-(trifluoromethyl)-3-pyridyl]methoxy]phenyl]methyl]pyrrolidine-2-carboxamide] |  | 240 |
| COC(=O)c1ccccc1OCc1ccc(CNC(=O)[C@@H]2CCCN2S(=O)(=O)c2ccc(Cl)s2)cc1 [Example 66, methyl 2-((4-({[(2S)-1-(5-chlorothiophene-2-sulfonyl)pyrrolidine-2-carbonyl]amino}methyl)phenyl)methoxy)benzoate] | 780 |  |
